From patent US6716635B2, “Method for identifying regulators of protein-advanced glycation end product (protein-AGE) formation” (University of Kentucky Research Foundation, priority 2000, dated 2004)

How the values were obtained:
[1] = system: histone H1 (glycation by ADP-ribose); assay: AGE-fluorescence screening of glycation inhibitors, histone H1 + ADP-ribose, 96 well microtiter plates; format: biochemical, calf; settings: for inhibition of AGE-fluorescence, in words: 1 to 10 mM, 5 days; for AGE-fluorescence (day 5): 5 days incubation; for % inhibition: AGE-fluorescence day 5; for AGE-fluorescence (day 0): value (spread); for suppression of AGE-fluorescence, primary screen outcome: test compound 5 mM or limit of solubility, pH 7.4, 37° C.
Method: A 96-well, microtiter plate was used to carry out 48 reactions in duplicate. […] A second pair of wells contains the reactants and the known glycation inhibitor aminoguanidine, and functions as a positive control. Histone H1 is commercially available, and can be prepared following the procedures set out in Johns, et al., Biochem J. 92:55-59(1964), which is incorporated by reference herein.
The reaction system is 50 mM potassium phosphate buffer, at pH 7.4 to which 1.5 mg/ml histone H1 and 1.0 mM ADP-ribose were added. Reaction volume was 300 ul. AGE-fluorescence was measured over time, with incubation at 37° C., at 355 nm (ex) and 405 nm (em). Upon comparison to the control, a test compound was deemed potentially positive if AGE-fluorescence was suppressed.
The histone H1 (1.5 mg/ml) was combined with 1 mM ADP-ribose, in […] KH2PO4 buffer (pH 7.4, 37° C., 0.015% NaN3 added, to inhibit microbial growth). This reaction mixture was added, to 96 well microtiter plates. Test compounds were added to the reaction mixture, at concentrations ranging from 1 to 10 mM, in reaction volumes of 300 ul. Texts were run in duplicate.
Accumulated protein damage was determined by measuring AGE-fluorescence, at wavelengths (λex=370 nm; λ em=440 nm. The fluorescence is suppressed in the presence of compounds with inhibitory activity. Assays were read on a conventional microtiter plate, with a filter setting that approached the above conditions (λ ex: 355 nm, λ […]: 405 nm), which is in the range of the broad excitation/emission maxima of AGE compounds.
The fluorescence was measured at the beginning, and after 5 days of incubation.
The known glycation inhibitor aminoguanidine was used as a control.

[2] = system: histone H1 (carbonylation); assay: histone H1 carbonylation by reducing sugars, and interference by compounds; format: biochemical; settings: for carbonylation of histone H1, in words / amount of carbonylation: 1 mM sugar, pH 7.4, 7 days
Method: Both protein cross-linking and protein carbonylation are well established indicia of protein glycation. See Schacter, et al., Free Radic Biol Med. 17:429-437 (1994), incorporated by reference. In brief, following the assays described infra, formation of protein cross-linking was measured on 12% SDS-PAGE, followed by Coomassie and silver staining. Cross-linking was detectable with a high degree of sensitivity, when the reaction between ADP-ribose and histone H1 was carried out at pH 9.0. […] In FIG. 8, the abbreviations “M,” “D”, and “O” represent “monomer,” “dimer” and “oligomer,” respectively. Silver staining is the preferred way of determining the cross linking. Protein carbonlyation was determined via Western blotting. Specifically, AGE-BSA, which had been prepared by incubating BSA with 1.66M glucose, at pH 7.4 for 90 days at 37° C., was recognized after being derivatized with 2.4 dinitrophenlyhydrazine (“DNP”), when tested with antibodies specific for protein bound, DNP epitopes.
A series of experiments were carried out to compare different reducing sugars as glycation agents. In addition to ADP-ribose, ADP-glucose, D-ribose and D-glucose were tested. Briefly, histone H1 was combined with 1 mM of each sugar, and the mixture was incubated at pH 7.4. After 7 days of incubation, reaction aliquots were analyzed on 12% SDS-PACE gels, with silver staining. Results are presented in FIGS. 19A and B. In each of these, lane 1 is a control, with no sugar added, while lanes 2-5 show results using D-glucose, D-ribose, ADP-glucose, and ADP-ribose, respectively. […] The amount of carbonylation caused by ADP-ribose (0.82 mole/mole histone H1), and D-ribose (0.06 mole/mole histone H1) correlated with immunostaining.
In order to determine if the carbonylation of histone H1 by ADP-ribose involved an oxidative pathway, several compounds, known to interfere with glycoxidation of proteins by D-glucose were tested to determine if they interfered with this action by ADP-ribose. The compounds tested included 5 mM DTPA under argon, 5 mM aminoguanidine, 5 mM N^α acetyl L-cysteine, 5 mM mannitol, and 100 units/ml catalase.

[3] = system: CF-3 (human dermal fibroblasts); assay: protection against α-dicarbonyl toxicity in fibroblasts, cell count; format: cell-based; settings: 72 hours
Method: (§1) Continuously cultured cell lines “He-Cat” (human epidermal keratinocytes), and “CF-3” (human dermal fibroblasts), were cultured under standard conditions, divided biweekly into DMEM containing 10% fetal bovine serum, and were kept in a humidified atmosphere containing 5% CO2 at 37° C. In order to divide the cells, 5% trypsin was used on the keratinocytes, and 1% trypsin was used on the fibroblasts.
(§2) Keratinocytes were seeded at 2×10^4 cells/well, and fibroblasts at 4×10^4 cells/well, using 6 well dishes. The cells were allowed to attach to the plate overnight. Either D-penicillamine or aminoguanidine (1 mM each) was added to the plates 15 minutes prior to addition of glyoxal or methylglyoxal. The α-dicarbonyl was left for 72 hours. Varying concentrations of the α-dicarbonyl were used. Cells were counted with a Coulter counter after 72 hours of stress. Cultures were also run where the glyoxal or methylglyoxal was used without the scavenger. L-alanine was used as a negative control as it was not expected to have protective effect.

[4] = system: He-Cat (human epidermal keratinocytes); assay: protection against α-dicarbonyl toxicity in keratinocytes, cell count; format: cell-based; settings: 72 hours
Method: as §1, §2

[5] = compound 1 mM added 15 minutes prior to methylglyoxal

Row | Molecule | AGE-fluorescence (day 5) ([1]; compound 1 mM) | % inhibition ([1]; compound 1 mM) [%] | AGE-fluorescence (day 0) ([1]; compound 1 mM) | AGE-fluorescence (day 5) ([1]; compound 5 mM) | % inhibition ([1]; compound 5 mM) [%] | AGE-fluorescence (day 0) ([1]; compound 5 mM) | AGE-fluorescence (day 5) ([1]; compound 10 mM) | % inhibition ([1]; compound 10 mM) [%] | AGE-fluorescence (day 0) ([1]; compound 10 mM) | further results
1 | NC(CCS)C(=O)O (racemic) [D,L-Homocysteine] | 16 (1.1) | 26 | 1.3 (0.0) | 22 (0.1) | 0 | 1.2 (0.2) | 27 (1.7) | 0 | 1.1 (0.1) | inhibition of AGE-fluorescence, in words [1]: increased AGE-fluorescence
2 | O=C1CC(=O)NC(=S)N1 [2-Thiobarbituric acid] | 12 (0.4) | 45 | 1.1 (0.1) | 5.5 (0.4) | 78 | 1.2 (0.1) | 2.3 (0.0) | 95 | 1.3 (0.1) | 
3 | Nc1ncnc2c1ncn2[C@@H]1O[C@H](COP(=O)(O)OP(=O)(O)O[C@H]2O[C@H](CO)[C@@H](O)[C@H](O)[C@H]2O)[C@@H](O)[C@H]1O [ADP-glucose] |  |  |  |  |  |  |  |  |  | carbonylation of histone H1, in words [2]: Neither D-glucose nor ADP-glucose caused significant carbonylation
4 | Nc1ncnc2c1ncn2[C@@H]1O[C@H](COP(=O)(O)OP(=O)(O)OC[C@H]2OC(O)[C@H](O)[C@@H]2O)[C@@H](O)[C@H]1O (stereo partly shown) [ADP-ribose] |  |  |  |  |  |  |  |  |  | amount of carbonylation [2]: 0.82 mole/mole histone H1; carbonylation of histone H1, in words [2]: extensive carbonylation
5 | NCCS [Cysteamine] | 10 (0.6) | 55 | 1.0 (0.1) | 9.0 (0.7) | 60 | 1.1 (0.1) | 6.0 (0.3) | 76 | 1.2 (0.2) | inhibition of AGE-fluorescence, in words [1]: somewhat better inhibition
6 | O=C[C@H](O)[C@@H](O)[C@H](O)[C@H](O)CO [D-glucose] |  |  |  |  |  |  |  |  |  | carbonylation of histone H1, in words [2]: Neither D-glucose nor ADP-glucose caused significant carbonylation
7 | O=C[C@H](O)[C@H](O)[C@H](O)CO [D-ribose] |  |  |  |  |  |  |  |  |  | amount of carbonylation [2]: 0.06 mole/mole histone H1; carbonylation of histone H1, in words [2]: a lesser amount
8 | O=C(O)CN(CCN(CC(=O)O)CC(=O)O)CCN(CC(=O)O)CC(=O)O [DTPA] |  |  |  |  |  |  |  |  |  | interference with carbonylation of histone H1 by ADP-ribose ([2]; 5 mM under argon): none of these interfered with the carbonylation
9 | N[C@@H](CCC(=O)N[C@@H](CS)C(=O)NCC(=O)O)C(=O)O [GSH, glutathione] | 19 (0.3) | 10 | 1.3 (0.0) | 17 (0.3) | 20 | 1.1 (0.3) | 14 (0.5) | 35 | 1.1 (0.0) | 
10 | N[C@@H](CS)C(=O)O [L-Cys, L-cysteine] | 14 (0.3) | 36 | 1.2 (0.1) | 11 (0.2) | 50 | 1.1 (0.1) | 9.0 (0.2) | 61 | 1.2 (0.1) | suppression of AGE-fluorescence, primary screen outcome [1]: potential inhibitor
11 | N[C@@H](CS)C(=O)NCC(=O)O [L-Cys-Gly, NH2-L-cys-gly-COOH] | 17 | 20 | 1.3 (0.3) | 26 (0.4) | 0 | 1.2 (0.2) | 40 (0.0) | 0 | 1.2 (0.1) | inhibition of AGE-fluorescence, in words [1]: increased AGE-fluorescence
12 | COC(=O)[C@@H](N)CS [L-Cys-OMe, L-cysteine methylester] | 15 (0.1) | 31 | 1.2 (0.1) | 12 (0.8) | 46 | 1.3 (0.1) | 9.0 (0.2) | 61 | 1.2 (0.1) | suppression of AGE-fluorescence, primary screen outcome [1]: potential inhibitor
13 | C[N+](C)(C)[C@@H](Cc1c[nH]c(=S)[nH]1)C(=O)[O-] [L-Ergothioneine] | 13 (0.0) | 40 | 1.0 (0.1) | 9.3 (0.2) | 59 | 1.2 (0.0) | 7.4 (0.1) | 69 | 1.2 (0.1) | inhibition of AGE-fluorescence, in words [1]: somewhat better inhibition
14 | C[C@H](N)C(=O)O [L-alanine] |  |  |  |  |  |  |  |  |  | protection against methylglyoxal induced growth inhibition [3, 5]: no protective effect; protection against methylglyoxal induced growth inhibition [4, 5]: no protective effect
15 | CC(=O)N[C@@H](CS)C(=O)O [NAC, N α-acetyl-L-cysteine, reference compound] | 11 (0.6) | 51 | 1.2 (0.2) | 10 (0.4) | 55 | 1.0 (0.1) | 9.4 (0.6) | 58 | 1.1 (0.1) | % inhibition ([1]; compound 10 mM, listed as N α-acetyl-L-cysteine): 61%; interference with carbonylation of histone H1 by ADP-ribose ([2]; compound 5 mM): none of these interfered with the carbonylation
16 | NCCC(=O)O [beta-alanine] |  |  |  |  |  |  |  |  |  | suppression of AGE-fluorescence, primary screen outcome [1]: true negatives
17 | OC[C@@H](O)[C@@H](O)[C@H](O)[C@H](O)CO [mannitol] |  |  |  |  |  |  |  |  |  | interference with carbonylation of histone H1 by ADP-ribose ([2]; compound 5 mM): none of these interfered with the carbonylation
18 | CC(=O)C=O [methylglyoxal] |  |  |  |  |  |  |  |  |  | concentration completely inhibitory to growth ([3]; no scavenger): 600 µM; concentration completely inhibitory to growth ([4]; no scavenger): 600 µM
19 | catalase |  |  |  |  |  |  |  |  |  | interference with carbonylation of histone H1 by ADP-ribose ([2]; 100 units/ml): none of these interfered with the carbonylation
